One assay has as its target T1, trastuzumab (Homo sapiens, UniProt P01857, D239E/L241M).
T1 construct: purchased Roche Herceptin®
Kind of assay: Preparation of trastuzumab-payload conjugates in solution, HRMS analysis (DoC, Fc/F(ab)2 selectivity). The following applies: 10 eq of peptide-payload conjugate. Here is the method: Deglycosylation of the conjugates was achieved by incubating 1 unit of Endo S per μg of conjugate in the formulation buffer (37° C.-1 hour).
The average Degree of Conjugation (DoC) values were calculated using the HRMS data and the Equation 1 (Eq. 1) below.
where I(DoCk) is the relative peak intensity of conjugates with k add-on molecules per antibody.
After payload conjugation, the reaction buffer was diluted with 64 μL of 0.1 M glycine pH 2.5. The antibody conjugate was then purified by gel filtration chromatography using a pre-equilibrated with 0.1 M glycine pH 2.5 Bio-spin P-30 Column (bed height: 3.7 cm, overall length: 5 cm; available from Bio-Rad, USA) and then eluted with 0.1M glycine pH 2.5. The purified antibody conjugate fractions were neutralized with 1M PBS pH 8.5 (10 μL).
(§1) The conjugation of the payload moiety to trastuzumab was evaluated by HRMS analysis (as described above). The payload loading ratios (selectivity) between Fc and F(ab)2 were evaluated by digesting the conjugates with GingisKhan protease (1 unit per μg of antibody conjugate in the presence of 2 mM cysteine, 0.1M Tris, pH 8.0 for 1 hour at 37° C.), and subsequent HRMS analysis (as described above). The Degree of Conjugation (DoC) of the trastuzumab-payload conjugates was evaluated based on the results of the HRMS analysis (as described above).
(§2) DoC Fc=DoC−DoC F(ab)2, Selectivity Fc/F(ab)2=(DoC−DoC F(ab)2)/Doc (Fab)2

A further assay addresses T2, rituximab (Homo sapiens, UniProt P01857).
T2 construct: purchased Roche RITUXAN®
Put plainly: Antibody-payload conjugation, HRMS analysis (Example 12). Here is the method: To prepare the trastuzumab-payload conjugates, 2 eq of reactive conjugate prepared in Examples 5-8, 10 (2.4 nmol) in DMSO (2-7% v/v in final reaction mixture) was added to a solution of trastuzumab (1 eq, 1.2 nmol; commercial trastuzumab Herceptin® available from Roche which was buffer-exchanged into phosphate-buffered saline (PBS) prior to the conjugation) diluted in 50 mM NaHCO3 pH 9.0 (20-28 μL) and the reaction mixture (36 μL) was stirred at room temperature for 2 hours.
as §1
The propensity of the reactive conjugates of the present invention to react with different antibodies was evaluated using commercially available atezolizumab, rituximab, trastuzumab emtansine, brentuximab-vedotin, aflibercept, panitumumab, pembrolizumab and Fc region only. Antibody-DOTA/FITC conjugates were prepared according to the same procedure as described in Example 11 above using peptide conjugates (indicated in Table 19) and the aforementioned antibodies.
as §2

A further assay deals with Fc region of trastuzumab (Homo sapiens, UniProt P01857). Kind of assay: Competitive FP binding assay against Fc-III-FAM. How it is done: All sample preparations were done in PBS pH 7.0 containing 0.05% Tween. Each experiment was performed in triplicate.

The text below walks through data of US20230381327A1, “REACTIVE CONJUGATES” (DEBIOPHARM RESEARCH & MANUFACTURING S.A., priority 2020, published 2023).

Residues, ends and D or L forms follow the SMILES beside them.

Regarding `O=C(OCCOCCNC(=S)Nc1ccc2c(c1)C(=O)OC21c2ccc(O)cc2Oc2cc(O)ccc21)Oc1ccc(C(=O)O)cc1` [Carbonate-FITC, 4-[2-[2-[(3′,6′-dihydroxy-3-oxo-spiro [isobenzofuran-1,9′-xanthene]-5-yl)carbamothioylamino]ethoxy]ethoxycarbonyloxy]benzoic acid], on trastuzumab, the DoC turned out to be 0.83, the “DoC F(ab)2” value came to 0.54, the “DoC Fc” value was 0.29 and the “Labeled mAb (%)” value turned out to be 59%. Besides, the “Selectivity Fc/F(ab)2” value at trastuzumab is listed as 0.5. Moreover, on rituximab, the “DoC F(ab)2” value is on record as 0.20 and the “Selectivity Fc/F(ab)2” value was 3.2. On rituximab (procedure of Example 11), the DoC was found to be 0.84 and the “Labeled mAb (%)” value was 59%. In addition, the “DoC Fc” value at rituximab (some values extrapolated as DoC − DoC F(ab)2) is 0.64.

Take `CC(=O)N[C@@H](CC(=O)O)C(=O)N[C@H]1CSSC[C@@H](C(=O)N[C@H](C(N)=O)[C@@H](C)O)NC(=O)[C@H](Cc2c[nH]c3ccccc23)NC(=O)[C@H](C(C)C)NC(=O)[C@H](CC(C)C)NC(=O)[C@H](CCC(=O)O)NC(=O)CNC(=O)[C@H](CC(C)C)NC(=O)[C@H](Cc2c[nH]cn2)NC(=O)[C@H](Cc2c[nH]c3ccccc23)NC(=O)[C@H](CCCCN)NC1=O` [Compound A3K] (HELM PEPTIDE1{[ac].D.C.K.W.H.L.G.E.L.V.W.C.T.[am]}$PEPTIDE1,PEPTIDE1,3:R3-13:R3$$$V2.0): the “binding to the Fc region of trastuzumab compared to Fc-III (in words)” value (“binding … compared to Fc-III (in words)” below) at Fc region of trastuzumab is recorded as “moderate binding efficiency”.

Take `CC(=O)N[C@@H](CC(=O)O)C(=O)N[C@H]1CSSC[C@@H](C(=O)N[C@H](C(N)=O)[C@@H](C)O)NC(=O)[C@H](Cc2c[nH]c3ccccc23)NC(=O)[C@H](C(C)C)NC(=O)[C@H](CC(C)C)NC(=O)[C@H](CCC(=O)O)NC(=O)CNC(=O)[C@H](CC(C)C)NC(=O)[C@H](CCCCN)NC(=O)[C@H](Cc2c[nH]c3ccccc23)NC(=O)[C@H](C)NC1=O` [Compound H5K] (HELM PEPTIDE1{[ac].D.C.A.W.K.L.G.E.L.V.W.C.T.[am]}$PEPTIDE1,PEPTIDE1,3:R3-13:R3$$$V2.0): on Fc region of trastuzumab, the “binding … compared to Fc-III (in words)” value is on record as “moderate binding efficiency”.

As for `CC(=O)N[C@@H](CC(=O)O)C(=O)N[C@H]1CSSC[C@@H](C(=O)N[C@H](C(N)=O)[C@@H](C)O)NC(=O)[C@H](Cc2c[nH]c3ccccc23)NC(=O)[C@H](C(C)C)NC(=O)[C@H](CC(C)C)NC(=O)[C@H](CCC(=O)O)NC(=O)CNC(=O)[C@H](CCCCN)NC(=O)[C@H](Cc2c[nH]cn2)NC(=O)[C@H](Cc2c[nH]c3ccccc23)NC(=O)[C@H](C)NC1=O` [Compound L6K] (HELM PEPTIDE1{[ac].D.C.A.W.H.K.G.E.L.V.W.C.T.[am]}$PEPTIDE1,PEPTIDE1,3:R3-13:R3$$$V2.0), the “binding … compared to Fc-III (in words)” value at Fc region of trastuzumab is listed as “moderate binding efficiency”.

As for `CC(=O)N[C@@H](CC(=O)O)C(=O)N[C@H]1CSSC[C@@H](C(=O)N[C@H](C(N)=O)[C@@H](C)O)NC(=O)[C@H](Cc2c[nH]c3ccccc23)NC(=O)[C@H](CCCCN)NC(=O)[C@H](CC(C)C)NC(=O)[C@H](CCC(=O)O)NC(=O)CNC(=O)[C@H](CC(C)C)NC(=O)[C@H](Cc2c[nH]cn2)NC(=O)[C@H](Cc2c[nH]c3ccccc23)NC(=O)[C@H](C)NC1=O` [Compound V10K] (HELM PEPTIDE1{[ac].D.C.A.W.H.L.G.E.L.K.W.C.T.[am]}$PEPTIDE1,PEPTIDE1,3:R3-13:R3$$$V2.0), the “binding … compared to Fc-III (in words)” value at Fc region of trastuzumab is reported as “moderate binding efficiency”.

With `CC(=O)N[C@@H](CC(=O)O)C(=O)N[C@H]1CSSC[C@@H](C(=O)N[C@H](C(N)=O)[C@@H](C)O)NC(=O)[C@H](Cc2c[nH]c3ccccc23)NC(=O)[C@H](C(C)C)NC(=O)[C@H](CC(C)C)NC(=O)[C@H](CCC(=O)O)NC(=O)CNC(=O)[C@H](CC(C)C)NC(=O)[C@H](Cc2c[nH]cn2)NC(=O)[C@H](CCCCN)NC(=O)[C@H](C)NC1=O` [Compound W4K] (HELM PEPTIDE1{[ac].D.C.A.K.H.L.G.E.L.V.W.C.T.[am]}$PEPTIDE1,PEPTIDE1,3:R3-13:R3$$$V2.0), on Fc region of trastuzumab, the “binding … compared to Fc-III (in words)” value is given as “significant impact on peptide binding”.

Turning to `CC(=O)N[C@@H](CC(=O)O)C(=O)N[C@H]1CSSC[C@@H](C(=O)N[C@H](C(N)=O)[C@@H](C)O)NC(=O)[C@H](CCCCN)NC(=O)[C@H](C(C)C)NC(=O)[C@H](CC(C)C)NC(=O)[C@H](CCC(=O)O)NC(=O)CNC(=O)[C@H](CC(C)C)NC(=O)[C@H](Cc2c[nH]cn2)NC(=O)[C@H](Cc2c[nH]c3ccccc23)NC(=O)[C@H](C)NC1=O` [Compound W11K] (HELM PEPTIDE1{[ac].D.C.A.W.H.L.G.E.L.V.K.C.T.[am]}$PEPTIDE1,PEPTIDE1,3:R3-13:R3$$$V2.0), the “binding … compared to Fc-III (in words)” value on Fc region of trastuzumab is on record as “significant impact on peptide binding”.
